According to the Deep4Chem optical property database:

Experiment: solvent given as SMILES

In the case of `c1ccc(-c2nc(-c3ccccc3)nc(-c3cc(-n4c5ccccc5c5ccccc54)c(-n4c5ccccc5c5ncccc54)c(-n4c5ccccc5c5ccccc54)c3)n2)cc1`, the emission maximum (in C1CCOC1) is reported as 481.97 nm, the emission maximum (in CC#N) is reported as 535.03 nm and the emission maximum (in CCCCCC) is reported as 422.11 nm. The emission maximum (in Cc1ccccc1) was 447.02 nm and the emission maximum (in ClCCl) was 507.14 nm.
Molecule `Cc1ccc(N(c2ccc(C)cc2)c2ccc3c(c2)c2cc(N(c4ccc(C)cc4)c4ccc(C)cc4)ccc2n3-c2ccc(-c3nc4cccc5c4n3-c3ccccc3C5(C)C)cc2)cc1` has an emission maximum (in Cc1ccccc1) of 496 nm and an emission maximum (in O=P(c1ccccc1)(c1ccccc1)c1ccccc1Oc1ccccc1P(=O)(c1ccccc1)c1ccccc1) of 491 nm.
`COC(=O)c1cc(=O)n(C)c2cc(-c3ccc4c(c3)OCCO4)sc12` gave an emission maximum (in CC#N) of 478 nm and an emission maximum (in ClCCl) of 473 nm.
Molecule `O=C1OC(=O)c2ccc(N(c3ccccc3)c3ccc4ccccc4c3)c3cccc1c23` has an emission maximum (in C1CCOC1) of 621 nm, an emission maximum (in CCCCCC) of 520 nm and an emission maximum (in ClCCl) of 638 nm. The emission maximum (in c1ccccc1) was 580 nm.
In the case of `Cc1cc(-c2ccc(-n3c4ccccc4c4ccccc43)cc2)nc(-c2ccc(-n3c4ccccc4c4ccccc43)cc2)n1`, the emission maximum (in C1CCOC1) is reported as 423 nm, the emission maximum (in CN(C)C=O) is reported as 461 nm and the emission maximum (in Cc1ccccc1) is reported as 398 nm. It also gave an emission maximum (in ClC(Cl)Cl) of 426 nm.
`CC1=CC(C)=[N+]2C1=C(C1=C(C)C3=C(C)c4c(C)cc(C)n4[B-](F)(F)[N+]3=C1C)c1c(C)cc(C)n1[B-]2(F)F` showed an emission maximum (in ClC(Cl)Cl) of 527 nm.
In the case of `COc1ccc2c(c1)CCc1c-2nc(N)c(C#N)c1-c1ccc(Br)cc1`, the emission maximum (in C1CCOC1) is reported as 403 nm, the emission maximum (in C1COCCO1) is reported as 412 nm and the emission maximum (in CC#N) is reported as 408 nm. It also gave an emission maximum (in CCCCCC) of 392 nm, an emission maximum (in CCO) of 419 nm and an emission maximum (in CN(C)C=O) of 423 nm. It also gave an emission maximum (in CO) of 418 nm, an emission maximum (in CS(C)=O) of 427 nm and an emission maximum (in ClC(Cl)Cl) of 415 nm. For the same molecule, the emission maximum (in ClCCl) was 411 nm.
With `CC1(C)C(/C=C2\C(=O)C(/C=C3\Nc4ccccc4C3(C)C)=C2[O-])=[NH+]c2ccccc21` the emission maximum (in ClC(Cl)Cl) was 670 nm.
`N#Cc1nc2c3ccc(-n4c5ccccc5c5ccccc54)cc3c3cc(-n4c5ccccc5c5ccccc54)ccc3c2nc1C#N` showed an emission maximum (in C1COCCO1) of 568.06 nm, an emission maximum (in CCCCCC) of 469.61 nm and an emission maximum (in Cc1ccccc1) of 531 nm. For the same molecule, the emission maximum (in ClC(Cl)Cl) was 612.69 nm and the emission maximum (in O=P(c1ccccc1)(c1ccccc1)c1cccc(-c2cc(-n3c4ccccc4c4ccccc43)cc(-n3c4ccccc4c4ccccc43)c2)n1) was 560 nm.
Work on `O=c1ccc2ccccc2o1` yielded an emission maximum (in O) of 385 nm.
Work on `CC(=O)OC[C@@H]1O[C@H](n2cnc3c2N=CN2Cc4c[n+](C)c(C)nc4N=C32)[C@@H](O)[C@H]1O` yielded an emission maximum (in CC#N) of 415 nm, an emission maximum (in CCO) of 416 nm and an emission maximum (in O) of 409 nm.
For `CON(OC)c1cc2c3cc(-c4c(C)cc(C)cc4C)cc4c5cc(-c6c(C)cc(C)cc6C)cc6c7cc(B(c8c(C)cc(C)cc8C)c8c(C)cc(C)cc8C)cc8c9cc(-c%10c(C)cc(C)cc%10C)cc%10c%11cc(-c%12c(C)cc(C)cc%12C)cc%12c(c1)c2c1c(c43)c(c65)c(c78)c(c9%10)c1c%11%12`, the emission maximum (in C1CCOC1) was 591 nm, the emission maximum (in CC(C)=O) was 615 nm and the emission maximum (in CCCCCC) was 490 nm. It also gave an emission maximum (in Cc1ccccc1) of 510 nm, an emission maximum (in ClC(Cl)Cl) of 545 nm and an emission maximum (in ClCCl) of 585 nm.
Work on `CCCCN(CCCC)c1ccc(/C=C/c2ccc3nc(/C=C/c4nc5ccc(/C=C/c6ccc(N(CCCC)CCCC)cc6)cc5n(CCC)c4=O)c(=O)n(CCC)c3c2)cc1` yielded an emission maximum (in C1COCCO1) of 630 nm and an emission maximum (in ClCCl) of 736 nm.
For `CCCCn1c2ccccc2c2ccc3c4cc(-c5cccc(F)c5)ccc4n(CCCC)c3c21`, the emission maximum (in ClC(Cl)Cl) was 398 nm.
`N#CSC1=CC2=C(c3c(Cl)cccc3Cl)c3cc(SC#N)c(NCc4ccccc4)n3[B-](F)(F)[N+]2=C1NCc1ccccc1` gave an emission maximum (in CC#N) of 648 nm, an emission maximum (in CCCCCC) of 655 nm and an emission maximum (in CCOC(C)=O) of 654 nm. It also gave an emission maximum (in CO) of 646 nm and an emission maximum (in ClCCl) of 656 nm.
Work on `Cc1cccc2cc(-c3cc4cccc(C)c4oc3=O)oc12` yielded an emission maximum (in CC#N) of 451 nm, an emission maximum (in CCOC(C)=O) of 436 nm and an emission maximum (in CS(C)=O) of 456 nm. It also gave an emission maximum (in Cc1ccccc1) of 436 nm and an emission maximum (in O) of 488 nm.
`O=c1oc2ccc3ccccc3c2nc1-c1ccc(Cl)cc1` gave an emission maximum (in c1ccccc1) of 465 nm.
For `CC1(C)c2ccccc2-c2cc3c(cc21)c1ccccc1n3-c1cccnc1`, the emission maximum (in ClCCl) was 373 nm.
Work on `CCCC1(CCC)c2cc(C#N)ccc2-c2ccc(C#N)cc21` yielded an emission maximum (in C1CCCCC1) of 324 nm.
Work on `CC(C)(C)c1ccc2c(c1)c1cc(C(C)(C)C)ccc1n2-c1ccc(C(=O)c2ccc(-n3c4ccc(C(C)(C)C)cc4c4cc(C(C)(C)C)ccc43)nc2)cn1` yielded an emission maximum (in C1CCOC1) of 496.58 nm, an emission maximum (in Cc1ccccc1) of 465.19 nm and an emission maximum (in ClCCl) of 532.91 nm.
Work on `Cc1c(C)c(N2c3ccccc3Oc3ccccc32)c(C)c(C)c1B(c1c(C)c(C)c(N2c3ccccc3Oc3ccccc32)c(C)c1C)c1c(C)c(C)c(N2c3ccccc3Oc3ccccc32)c(C)c1C` yielded an emission maximum (in CC(C)(C)c1ccc(-n2c3ccc([Si](c4ccccc4)(c4ccccc4)c4ccccc4)cc3c3cc([Si](c4ccccc4)(c4ccccc4)c4ccccc4)ccc32)cc1) of 509 nm.
Work on `CCCCC(CC)CN1C(=O)c2cc(Oc3ccc(OC)cc3)c3c4c(Oc5ccc(C(C)(C)C)cc5)cc5c6c(cc(Oc7ccc(C(C)(C)C)cc7)c(c7c(Oc8ccc(OC)cc8)cc(c2c37)C1=O)c64)C(=O)N(c1c(C(C)C)cccc1C(C)C)C5=O` (stereo unspecified) yielded an emission maximum (in Cc1ccccc1) of 608 nm.
`N#Cc1ccc2nc3[nH]c(=O)[nH]c(=O)c3nc2c1` gave an emission maximum (in ClCCCl) of 420 nm.
